Key:
endogenous CGRP receptor = endogenous CGRP receptor (Homo sapiens, UniProt O60894+Q16602); assay: CGRP functional antagonism using SK-N-MC-BLA (4C10), β-lactamase transcriptional reporter assay; assay type: cell-based; settings: SK-N-MC (4C10) cells, inhibition of β-lactamase expression in the presence of 200 pM CGRP
[1] = target: T1, CGRP receptor (SK-N-MC membrane) (Homo sapiens, UniProt O60894+Q16602); assay: I125-CGRP binding displacement assay on purified SK-N-MC membrane
T1 construct: Purified SK-N-MC membrane was purchased from Perkin Elmer; purchased Perkin Elmer; host or cells: SK-N-MC membrane
Outline: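 Human SK-N-MC membranes incubated with compounds and I125-CGRP for 2 h at room temperature in 25 mM Tris-HCl pH 7.4, 5 mM MgCl2, 0.1% BSA, 0.05% Tween, then filtered and counted. Nonspecific binding defined with 1 uM unlabelled CGRP; percent displacement fitted to curves.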

T1 sequence (Q16602 23-461): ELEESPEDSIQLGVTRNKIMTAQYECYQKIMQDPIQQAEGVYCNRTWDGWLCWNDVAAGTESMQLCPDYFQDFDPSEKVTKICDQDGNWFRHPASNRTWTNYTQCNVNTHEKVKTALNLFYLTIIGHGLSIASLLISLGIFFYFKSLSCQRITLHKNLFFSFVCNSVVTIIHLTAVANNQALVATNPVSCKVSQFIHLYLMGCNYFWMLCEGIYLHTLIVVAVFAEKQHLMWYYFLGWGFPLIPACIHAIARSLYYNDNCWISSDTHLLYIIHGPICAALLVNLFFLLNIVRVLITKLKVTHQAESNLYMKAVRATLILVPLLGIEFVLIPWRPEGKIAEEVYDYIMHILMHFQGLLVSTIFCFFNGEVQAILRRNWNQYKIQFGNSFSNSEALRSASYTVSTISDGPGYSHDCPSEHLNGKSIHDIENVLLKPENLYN
T1 sequence (O60894 27-148): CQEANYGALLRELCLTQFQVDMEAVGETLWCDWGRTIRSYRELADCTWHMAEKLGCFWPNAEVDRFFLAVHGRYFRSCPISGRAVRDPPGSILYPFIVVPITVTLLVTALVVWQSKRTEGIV
endogenous CGRP receptor, sequence (Q16602 23-461): as the sequence (Q16602 23-461) above
endogenous CGRP receptor, sequence (O60894 27-148): as the sequence (O60894 27-148) above

| SMILES | IC50 (endogenous CGRP receptor) [nM] | Ki [1] [nM] |
| --- | --- | --- |
| CC(C)(C)CCN1C(=O)[C@H](CC(=O)N2CCC(N3CCc4ccccc4NC3=O)CC2)SC1c1ccccc1C1CCN(C(=O)OC(C)(C)C)CC1 (mixture of isomers) [Compound 500] | > 5000 | < 1000 |
| CC(C)(C)CCN1C(=O)[C@H](CC(=O)N2CCC(N3CCc4ccccc4NC3=O)CC2)SC1c1ccn(C2CCN(C(=O)OC(C)(C)C)CC2)n1 (stereo partly shown) [Compound 490] | > 5000 | < 1000 |
| CN(c1ccccc1C1SC(CC(=O)N2CCC(N3CCc4ccccc4NC3=O)CC2)C(=O)N1CCC(C)(C)C)[C@H]1CCN(Cc2ccccc2)C1 (stereo partly shown) [Compound 403] | 1000 to 5000 | < 1000 |
| CC(C)CC1SC(CC(=O)N2CCC(N3Cc4ccccc4NC3=O)CC2)C(=O)N1CCc1ccncc1 (stereo not shown) [Compound 43] | 1000 to 5000 | < 1000 |
| COc1ccc(C2SC(CC(=O)N3CCC(n4cc(-c5ccccc5)[nH]c4=O)CC3)C(=O)N2CCC(C)C)cc1OC (stereo not shown) [Compound 19] | > 5000 | > 5000 |
| CC(C)(C)CCN1C(=O)[C@H](CC(=O)N2CCC(N3CCc4ccccc4NC3=O)CC2)SC1c1cccc(F)c1N1CC[C@H](O)C1 (stereo partly shown) [Compound 485] | 1000 to 5000 | < 1000 |
| C[C@@H]1CN(c2c(F)cccc2[C@H]2S[C@@H](CC(=O)N3CCC(N4CCc5ccccc5NC4=O)CC3)C(=O)N2CCC(C)(C)C)C[C@H](C)N1 [Compound 474] | 1000 to 5000 | < 1000 |
| CC(C)(C)CCN1C(=O)C(CC(=O)N2CCC(N3CCc4ccccc4NC3=O)CC2)SC1c1ccccc1C1=CCNCC1 (stereo not shown) [Compound 414] | 1000 to 5000 | > 5000 |
| CC(C)CCN1C(=O)C(CC(=O)N2CCC(N3CCc4ccccc4NC3=O)CC2)SC1c1ccccc1 (stereo not shown) [Compound 78] | < 1000 | < 1000 |
| CC(C)(C)N1CCN(c2c(F)cccc2[C@H]2S[C@@H](CC(=O)N3CCC(N4CCc5ccccc5NC4=O)CC3)C(=O)N2CC2CCOCC2)CC1 [Compound 523] | < 1000 | < 1000 |
| CC(C)(C)N1CCN(c2c(F)cccc2C2S[C@@H](CC(=O)N3CCC(n4c(=O)[nH]c5ncccc54)CC3)C(=O)N2CC2CCCCC2)CC1 (stereo partly shown) [Compound 516] | < 1000 | < 1000 |
| N#Cc1ccccc1C1SC(CC(=O)N2CCC(N3Cc4ccccc4NC3=O)CC2)C(=O)N1CC1CCCCC1 (stereo not shown) [Compound 265] | < 1000 | < 1000 |
| CC(C)(C)CCN1C(=O)[C@H](CC(=O)N2CCC(O)(c3ccc(Br)cc3)CC2)SC1c1cccc(F)c1N1CCN(C(C)(C)C)CC1 (stereo partly shown) [Compound 457] | < 1000 | < 1000 |
| CN1CCN(c2ccc(F)cc2C2SC(CC(=O)N3CCC(n4c(=O)[nH]c5ncccc54)CC3)C(=O)N2CCC(C)(C)C)CC1 (stereo not shown) [Compound 353] | < 1000 | < 1000 |
| O=C(CC1SC(c2ccccc2)N(CC2CCCCC2)C1=O)N1CCC(N2Cc3ccccc3NC2=O)CC1 (stereo not shown) [Compound 264] | < 1000 | < 1000 |
| CC(C)CCN1C(=O)C(CC(=O)N2CCC(N3Cc4ccccc4NC3=O)CC2)SC1c1ccccn1 (stereo not shown) [Compound 266] | < 1000 | < 1000 |
| CCOCCCN1C(=O)C(CC(=O)N2CCC(N3Cc4ccccc4NC3=O)CC2)SC1c1ccccc1 (stereo not shown) [Compound 159] | < 1000 | < 1000 |

The next lines start with the values.

| IC50 (endogenous CGRP receptor) [nM] | Ki [1] [nM] | SMILES |
| --- | --- | --- |
| < 1000 | < 1000 | CC(C)(C)CCN1C(=O)[C@H](CC(=O)N2CCC(n3c(=O)[nH]c4ncccc43)CC2)SC1c1cccc(F)c1N1CCN(C(C)(C)C)CC1 (stereo partly shown) [Compound 437] |
| < 1000 | < 1000 | Cc1cc(C2SC(CC(=O)N3CCC(N4CCc5ccccc5NC4=O)CC3)C(=O)N2CCC(C)(C)C)cc2cn[nH]c12 (stereo not shown) [Compound 3] |
| < 1000 | < 1000 | CC(C)(C)N1CCN(c2c(F)cccc2[C@H]2S[C@@H](CC(=O)N3CCC(N4CCc5ccccc5NC4=O)CC3)C(=O)N2CCc2ccc(F)cc2)CC1 [Compound 503] |
| < 1000 | < 1000 | CC(C)CCN1C(=O)C(CC(=O)N2CCC(N3CCc4ccccc4NC3=O)CC2)SC1c1ccccc1-n1ccnc1 (stereo not shown) [Compound 260] |
| < 1000 | < 1000 | CC(C)(C)CCN1C(=O)[C@H](CC(=O)N2CCC(N3CCc4ccccc4NC3=O)CC2)S[C@@H]1c1cccc(F)c1C1CCNCC1 [Compound 552, 3-(1-(2-((2R,5S)-2-(3-fluoro-2-(piperidin-4-yl)phenyl)-3-(3,3-dimethylbutyl)-4-oxothiazolidin-5-yl)acetyl)piperidin-4-yl)-4,5-dihydro-1H-benzo[d][1,3]diazepin-2(3H)-one] |
| < 1000 | < 1000 | CC(C)(C)N1CCN(c2c(F)cccc2[C@@H]2S[C@@H](CC(=O)N3CCC(N4CCc5ccccc5NC4=O)CC3)C(=O)N2Cc2ccccc2)CC1 [Compound 548] |
| < 1000 | < 1000 | CC(C)(C)CCN1C(=O)[C@H](CC(=O)N2CCC(n3c(=O)[nH]c4ncccc43)CC2)S[C@@H]1c1cccc(F)c1C1CCNCC1 [Compound 554] |
| < 1000 | < 1000 | CC(C)(C)CCN1C(=O)[C@H](CC(=O)N2CCC(n3c(=O)[nH]c4ncccc43)CC2)S[C@H]1c1cccc(F)c1N1CCN(C(C)(C)C)CC1 [Compound 436] |
| < 1000 | < 1000 | CC(C)(C)N1CCN(c2c(F)cccc2[C@H]2S[C@@H](CC(=O)N3CCC(N4CCc5ccccc5NC4=O)CC3)C(=O)N2Cc2ccccc2)CC1 [Compound 547] |
| < 1000 | < 1000 | CC(C)(C)CCN1C(=O)C(CC(=O)N2CCC(N3Cc4ccccc4NC3=O)CC2)SC12CCCc1ccccc12 (stereo not shown) [Compound 315] |
| < 1000 | < 1000 | CC(C)CN1CCC(c2ncc(C3S[C@@H](CC(=O)N4CCC(N5CCc6ccccc6NC5=O)CC4)C(=O)N3CCC(C)(C)C)s2)CC1 (stereo partly drawn) [Compound 498, (5S)-3-(3,3-Dimethylbutyl)-2-(2-(1-isobutylpiperidin-4-yl)thiazol-5-yl)-5-(2-oxo-2-(4-(2-oxo-4,5-dihydro-1H-benzo[d][1,3]diazepin-3(2H)-yl)piperidin-1-yl)ethyl)thiazolidin-4-one] |
| < 1000 | < 1000 | CN(c1ccccc1C1SC(CC(=O)N2CCC(n3c(=O)[nH]c4ncccc43)CC2)C(=O)N1CCC(C)(C)C)[C@@H]1CCN(Cc2ccccc2)C1 (stereo partly shown) [Compound 402] |
| < 1000 | < 1000 | CC(C)(C)CCN1C(=O)C(CC(=O)N2CCC(N3CCc4ccccc4NC3=O)CC2)SC1c1cccc(F)c1F (stereo not shown) [Compound 48] |
| < 1000 | < 1000 | CC(C)(C)CCN1C(=O)[C@H](CC(=O)N2CCC(N3CCc4ccccc4NC3=O)CC2)SC1c1ccccc1N1CCN(C(=O)OC(C)(C)C)CC1=O (stereo partly shown) [Compound 510] |
| < 1000 | < 1000 | CC(C)(C)N1CCN(c2c(F)cccc2[C@@H]2S[C@@H](CC(=O)N3CCC(N4CCc5ccccc5NC4=O)CC3)C(=O)N2CCc2ccc(F)cc2)CC1 [Compound 504] |
| < 1000 | < 1000 | CC(C)CCN1C(=O)C(CC(=O)N2CCC(N3CCc4ccccc4NC3=O)CC2)SC1c1ccccc1N1CCOCC1 (stereo not shown) [Compound 10] |
| < 1000 | < 1000 | O=C(CC1SC(c2cccc(F)c2F)N(CC2CCCCC2)C1=O)N1CCC(N2CCc3ccccc3NC2=O)CC1 (stereo not shown) [Compound 279] |
| < 1000 | < 1000 | CN1CCN(c2ccccc2C2SC(CC(=O)N3CCC(c4cc5ccccc5[nH]c4=O)CC3)C(=O)N2CCC(C)(C)C)CC1 (stereo not shown) [Compound 303] |
